Test results from patent US9090576B2, “2-substituted-p-quinone derivatives for treatment of oxidative stress diseases” (Edison Pharmaceuticals, Inc., priority 2008, dated 2015).
Read-outs that look alike come from different tables or passages of the source.

What was measured:
Format in all cases: cell-based
[1] = test system: human dermal fibroblasts from LHON patients; assay: Rescue of BSO-stressed fibroblasts from LHON patients (screen as Example A); conditions: Fibroblast, BSO-stressed LHON fibroblasts (GM03858), less than about 150 nM, read-out: EC50, protection against LHON
Description: (§1) A culture with FRDA fibroblasts was started from a 1 ml vial with approximately 500,000 cells stored in liquid nitrogen. Cells were propagated in 10 cm cell culture dishes by splitting every third day in a ratio of 1:3 until nine plates were available. Once confluent, fibroblasts were harvested. For 54 micro titer plates (96 well-MTP) a total of 14.3 million cells (passage eight) were re-suspended in 480 ml medium, corresponding to 100 μl medium with 3,000 cells/well. The remaining cells were distributed in 10 cm cell culture plates (500,000 cells/plate) for propagation. The plates were incubated overnight at 37° C. in an atmosphere with 95% humidity and 5% CO2 to allow attachment of the cells to the culture plate.
(§2) MTP medium (243 μl) was added to a well of the microtiter plate. The test compounds were unfrozen, and 7.5 μl of a 5 mM stock solution was dissolved in the well containing 243 μl medium, resulting in a 150 μM master solution. Serial dilutions from the master solution were made. The period between the single dilution steps was kept as short as possible (generally less than 1 second).
(§3) Plates were kept overnight in the cell culture incubator. The next day, 10 μl of a 10 mM BSO solution were added to the wells, resulting in a 1 mM final BSO concentration. Forty-eight hours later, three plates were examined under a phase-contrast microscope to verify that the cells in the 0% control (wells E1-H1) were clearly dead. The medium from all plates was discarded, and the remaining liquid was removed by gently tapping the plate inversed onto a paper towel.
(§4) 100 μl of PBS containing 1.2 μM Calcein AM were then added to each well. The plates were incubated for 50-70 minutes at room temperature. After that time the PBS was discarded, the plate gently tapped on a paper towel and fluorescence (excitation/emission wavelengths of 485 nm and 525 nm, respectively) was read on a Gemini fluorescence reader. Data was imported into Microsoft Excel (EXCEL is a registered trademark of Microsoft Corporation for a spreadsheet program) and used to calculate the EC50 concentration for each compound.
(§5) Compounds of the invention were screened as described in Example A, but substituting FRDA cells with Leber's Hereditary Optic Neuropathy (LHON) cells obtained from the Coriell Cell Repositories (Camden, N.J.; repository number GM03858). The compounds were tested for their ability to rescue human dermal fibroblasts from LHON patients from oxidative stress.

[2] = test system: human dermal fibroblasts from Huntington's patients; assay: Rescue of BSO-stressed fibroblasts from Huntington's patients (screen as Example A); conditions: Fibroblast, BSO-stressed Huntington's fibroblasts (GM 04281), less than about 150 nM, read-out: EC50, protection against Huntington's
Description: as §1, §2, §3, §4
as §5, with “tested using the screen” for “screened”, “Huntington's” for “Leber's Hereditary Optic Neuropathy (LHON)”, “GM 04281).” for “GM03858).”, “Huntington's” for “LHON”

[3] = test system: Human dermal fibroblasts from Friedreich's Ataxia patients; assay: Rescue of BSO-stressed FRDA fibroblasts (Calcein AM viability); conditions: BSO-stressed FRDA fibroblasts (GM04078)
Description: An initial screen was performed to identify compounds effective for the amelioration of redox disorders. Test samples, 4 reference compounds (Idebenone, decylubiquinone, Trolox and α-tocopherol acetate), and solvent controls were tested for their ability to rescue FRDA fibroblasts stressed by addition of L-buthionine-(S,R)-sulfoximine (BSO), as described in Jauslin et al., Hum. Mol. Genet. 11(24):3055 (2002), Jauslin et al., FASEB J. 17:1972-4 (2003), and International Patent Application WO 2004/003565. […] This specific BSO-mediated cell death can be prevented by administration of antioxidants or molecules involved in the antioxidant pathway, such as α-tocopherol, selenium, or small molecule glutathione peroxidase mimetics. However, antioxidants differ in their potency, i.e. the concentration at which they are able to rescue BSO-stressed FRDA fibroblasts.
MEM (a medium enriched in amino acids and vitamins, catalog no. 1-31F24-I) and Medium 199 (M199, catalog no. 1-21F22-I) with Earle's Balanced Salts, without phenol red, were purchased from Bioconcept. Fetal Calf Serum was obtained from PAA Laboratories. Basic fibroblast growth factor and epidermal growth factor were purchased from PeproTech. Penicillin-streptomycin-glutamine mix, L-buthionine (S,R)-sulfoximine, (+)-α-tocopherol acetate, decylubiquinone, and insulin from bovine pancreas were purchased from Sigma. Trolox (6-hydroxy-2,5,7,8-tetramethylchromane-2-carboxylic acid) was obtained from Fluka. Idebenone was obtained from Chemo Iberica. Calcein AM was purchased from Molecular Probes. Cell culture medium was made by combining 125 ml M199 EBS, 50 ml Fetal Calf Serum, 100 U/ml penicillin, 100 μg/ml streptomycin, 2 mM glutamine, 10 μg/ml insulin, 10 ng/ml EGF, and 10 ng/ml bFGF; MEM EBS was added to make the volume up to 500 ml. A 10 mM BSO solution was prepared by dissolving 444 mg BSO in 200 ml of medium with subsequent filter-sterilization. During the course of the experiments, this solution was stored at +4° C. The cells were obtained from the Coriell Cell Repositories (Camden, N.J.; repository number GM04078) and grown in 10 cm tissue culture plates. Every third day, they were split at a 1:3 ratio.
The test samples were supplied in 1.5 ml glass vials. The compounds were diluted with DMSO, ethanol or PBS to result in a 5 mM stock solution. Once dissolved, they were stored at −20° C. Reference antioxidants (Idebenone, decylubiquinone, α-tocopherol acetate and trolox) were dissolved in DMSO.
Test samples were screened according to the following protocol:
as §1, §2
as §3, with “The medium from all plates was discarded, and the remaining liquid was removed by gently tapping the plate inversed onto a paper towel.” left out

[4] = 1 mM BSO, 48 h, first of three experiments, read-out: EC50 Value 1
[5] = 1 mM BSO, 48 h, second of three experiments, read-out: EC50 Value 2
[6] = 1 mM BSO, 48 h, third of three experiments, read-out: EC50 Value 3
[7] = average of three experiments, read-out: EC50 Average
[8] = less than about 150 nM, read-out: EC50, protection against FRDA

Structure (SMILES): CC1=C(C)C(=O)C(CCCC(=O)NCCc2ccccn2)=C(C)C1=O [N-(2-(pyridin-2-yl)ethyl)-4-(2,4,5-trimethyl-3,6-dioxocyclohexa-1,4-dienyl)butanamide]
- EC50 [1]: < 150 nM
- EC50 [2]: < 150 nM

Structure (SMILES): CC1=C(C)C(=O)C(CCCC(=O)N2CCC(F)CC2)=C(C)C1=O [2-(4-(4-fluoropiperidin-1-yl)-4-oxobutyl)-3,5,6-trimethylcyclohexa-2,5-diene-1,4-dione]
- EC50 [1]: < 150 nM

Structure (SMILES): COC1=C(OC)C(=O)C(CCCCCCCCCCO)=C(C)C1=O [Idebenone, reference compound]
- EC50 [3, 4]: 1500 nM
- EC50 [3, 5]: 1000 nM
- EC50 [3, 6]: 1000 nM
- EC50 [3, 7]: 1200 nM

Structure (SMILES): CC1=C(C)C(=O)C(CCC(C)C(N)=O)=C(C)C1=O (centres unmarked) [2-methyl-4-(2,4,5-trimethyl-3,6-dioxocyclohexa-1,4-dienyl)butanamide]
- EC50 [1]: < 150 nM

Structure (SMILES): CC1=C(C)C(=O)C(CCCC(=O)N2CCC(F)(F)CC2)=C(C)C1=O [2-(4-(4,4-difluoropiperidin-1-yl)-4-oxobutyl)-3,5,6-trimethylcyclohexa-2,5-diene-1,4-dione]
- EC50 [1]: < 150 nM

Structure (SMILES): CCNC(=O)N(C)CCC1=C(C)C(=O)C(C)=C(C)C1=O [3-Ethyl-1-methyl-1-(2-(2,4,5-trimethyl-3,6-dioxocyclohexa-1,4-dienyl)ethyl)urea]
- EC50 [3, 8]: < 150 nM

Structure (SMILES): Cc1c(C)c2c(c(C)c1O)CCC(C)(C(=O)O)O2 (centres unmarked) [Trolox, 6-hydroxy-2,5,7,8-tetramethylchromane-2-carboxylic acid, reference compound]
- EC50 [3, 4]: 9000 nM
- EC50 [3, 5]: 9000 nM
- EC50 [3, 6]: 8000 nM
- EC50 [3, 7]: 8700 nM

Structure (SMILES): CCCNC(=O)C(C)CCC1=C(C)C(=O)C(C)=C(C)C1=O (centres unmarked) [2-methyl-N-propyl-4-(2,4,5-trimethyl-3,6-dioxocyclohexa-1,4-dienyl)butanamide]
- EC50 [2]: < 150 nM

Structure (SMILES): CC1=C(C)C(=O)C(CCCC(=O)N2CCCC2)=C(C)C1=O [2,3,5-trimethyl-6-(4-oxo-4-(pyrrolidin-1-yl)butyl)cyclohexa-2,5-diene-1,4-dione]
- EC50 [3, 8]: < 150 nM

Structure (SMILES): CC1=C(C)C(=O)C(CCCC(=O)N2CCN(C(=O)c3ccccc3)CC2)=C(C)C1=O [2-(4-(4-benzoylpiperazin-1-yl)-4-oxobutyl)-3,5,6-trimethylcyclohexa-2,5-diene-1,4-dione]
- EC50 [1]: < 150 nM

Structure (SMILES): CC1=C(C)C(=O)C(CCNC(=O)N2CCCCC2)=C(C)C1=O [N-(2-(2,4,5-trimethyl-3,6-dioxocyclohexa-1,4-dienyl)ethyl)piperidine-1-carboxamide]
- EC50 [3, 8]: < 150 nM

Structure (SMILES): CC1=C(CCNC(=O)C2CCC(F)(F)CC2)C(=O)C(c2ccc(Cl)cc2)=C(C)C1=O [N-(2-(5-(4-chlorophenyl)-2,4-dimethyl-3,6-dioxocyclohexa-1,4-dienyl)ethyl)-4,4-difluorocyclohexanecarboxamide]
- EC50 [1]: < 150 nM
- EC50 [3, 8]: < 150 nM

Structure (SMILES): CC1=C(C)C(=O)C(CCNC(=O)C(O)c2ccc(Cl)cc2)=C(C)C1=O (centres unmarked) [2-(4-chlorophenyl)-2-hydroxy-N-(2-(2,4,5-trimethyl-3,6-dioxocyclohexa-1,4-dienyl)ethyl)acetamide]
- EC50 [1]: < 150 nM
- EC50 [2]: < 150 nM

Structure (SMILES): CC1=C(C)C(=O)C(CCC(C)C(=O)N2CCC(F)CC2)=C(C)C1=O (centres unmarked) [2-(4-(4-fluoropiperidin-1-yl)-3-methyl-4-oxobutyl)-3,5,6-trimethylcyclohexa-2,5-diene-1,4-dione]
- EC50 [1]: < 150 nM
- EC50 [2]: < 150 nM

Structure (SMILES): CCCCCC(=O)NCCC1=C(CCC(C)(C)O)C(=O)C(C)=C(C)C1=O [N-(2-(2-(3-Hydroxy-3-methylbutyl)-4,5-dimethyl-3,6-dioxocyclohexa-1,4-dienyl)ethyl)hexanamide]
- EC50 [1]: < 150 nM
- EC50 [2]: < 150 nM

Structure (SMILES): CC1=C(C)C(=O)C(CCNC(=O)N2CCC(O)CC2)=C(C)C1=O [4-hydroxy-N-(2-(2,4,5-trimethyl-3,6-dioxocyclohexa-1,4-dienyl)ethyl)piperidine-1-carboxamide]
- EC50 [1]: < 150 nM

Structure (SMILES): CC1=C(C)C(=O)C(CCCC(=O)N2CCN(C(=O)C3CCCCC3)CC2)=C(C)C1=O [2-(4-(4-(cyclohexanecarbonyl)piperazin-1-yl)-4-oxobutyl)-3,5,6-trimethylcyclohexa-2,5-diene-1,4-dione]
- EC50 [1]: < 150 nM

Structure (SMILES): CC(=O)Oc1c(C)c(C)c2c(c1C)CCC(C)(CCC[C@H](C)CCC[C@H](C)CCCC(C)C)O2 (stereo partly drawn) [alpha-Tocopherol acetate, (+)-α-tocopherol acetate, reference compound]
- EC50 [3, 4]: 400 nM
- EC50 [3, 5]: 150 nM
- EC50 [3, 6]: 350 nM
- EC50 [3, 7]: 300 nM

Structure (SMILES): CC(=O)N1CCN(C(=O)NCCC2=C(C)C(=O)C(C)=C(C)C2=O)CC1 [4-acetyl-N-(2-(2,4,5-trimethyl-3,6-dioxocyclohexa-1,4-dienyl)ethyl)piperazine-1-carboxamide]
- EC50 [1]: < 150 nM
- EC50 [2]: < 150 nM

Structure (SMILES): CCNC(=O)NCCC1=C(C)C(=O)C(C)=C(c2ccc(Cl)cc2)C1=O [1-(2-(5-(4-chlorophenyl)-2,4-dimethyl-3,6-dioxocyclohexa-1,4-dienyl)ethyl)-3-ethylurea]
- EC50 [1]: < 150 nM
- EC50 [3, 8]: < 150 nM

Structure (SMILES): CC1=C(C)C(=O)C(CCNC(=O)c2cccnc2)=C(C)C1=O [N-(2-(2,4,5-trimethyl-3,6-dioxocyclohexa-1,4-dienyl)ethyl)nicotinamide]
- EC50 [1]: < 150 nM

Structure (SMILES): CC1=C(C)C(=O)C(CCNC(=O)C(O)c2ccccc2)=C(C)C1=O (centres unmarked) [2-hydroxy-2-phenyl-N-(2-(2,4,5-trimethyl-3,6-dioxocyclohexa-1,4-dienyl)ethyl)acetamide]
- EC50 [1]: < 150 nM
- EC50 [3, 8]: < 150 nM

Structure (SMILES): CC1=C(C)C(=O)C(CCC(C)C(=O)N2CCC(O)CC2)=C(C)C1=O (centres unmarked) [2-(4-(4-hydroxypiperidin-1-yl)-3-methyl-4-oxobutyl)-3,5,6-trimethylcyclohexa-2,5-diene-1,4-dione]
- EC50 [3, 8]: < 150 nM

Structure (SMILES): CCCCCCCCCCC1=C(C)C(=O)C(OC)=C(OC)C1=O [Decylubiquinone, decylubiquinone, reference compound]
- EC50 [3, 4]: 50 nM
- EC50 [3, 5]: 35 nM
- EC50 [3, 6]: 30 nM
- EC50 [3, 7]: 38 nM
